Paper PMC3294087 (Journal of Immunology (Baltimore, Md. : 1950), 2012)
Read-outs that look alike come from different tables or passages of the source.

Experiments:
[1] = test system: Staphylococcus aureus (Wood 46 strain; ATCC# 10832); type: cell-based; settings: 30 min at 37°C in PBS, mean of three experiments
[2] = test system: Candida albicans (Berkhout anamorph, ATCC # MYA-3573); type: cell-based; settings: mean of three experiments
[3] = test system: Phil82 strain of IAV (A/Phillipines/82(H3N2)); experiment: Fluorescent focus assay on A549 cells; type: cell-based, influenza A virus; settings: mean±SEM of 4 experiments

With HNP1: human neutrophil α-defensin the “S. aureus % of Control Colonies” value ([1]; 1.25 μg/ml) was 202±5%, the “S. aureus % of Control Colonies” value ([1]; 2.5 μg/ml) was 151±4% and the “S. aureus % of Control Colonies” value ([1]; 20 μg/ml) was 71±1 %. For the same molecule, the “C. albicans % of Control Colonies” value ([2]; 1.25 μg/ml) was 81±5 %, the “C. albicans % of Control Colonies” value ([2]; 2.5 μg/ml) was 61±4 % and the “C. albicans % of Control Colonies” value ([2]; 20 μg/ml) was 61±2 %.

B1: SP-D: Recombinant human pulmonary surfactant protein D, dodecameric fraction, produced in CHO-K1 cells (protein, UniProt P35247 21-375, looked up)
Pulmonary …: AEMKTYSHRTMPSACTLVMCSSVESGLPGRDGRDGREGPRGEKGDPGLPGAAGQAGMPGQAGPVGPKGDNGSVGEPGPKGDTGPSGPPGPPGVPGPAGREGPLGKQGNIGPQGKPGPKGEAGPKGEVGAPGMQGSAGARGLAGPKGERGVPGERGVPGNTGAAGSAGAMGPQGSPGARGPPGLKGDKGIPGDKGAKGESGLPDVASLRQQVEALQGQVQHLQAAFSQYKKVELFPNGQSVGEKIFKTAGFVKPFTEAQLLCTQAGGQLASPRSAAENAALQQLVVAKNEAAFLSMTDSKTEGKFTYPTGESLVYSNWAPGEPNDDGGSEDCVEIFTNGKWNDRACGEKRLVVCEF
modifications: dodecameric fraction
B1 was tested, and the “Neutralizing activity (infectious foci, control = 100%)” value ([3]; SP-D 5 ng/ml alone) was 74±10% and the “Neutralizing activity (infectious foci, control = 100%)” value ([3]; SP-D 10 ng/ml alone) was 50±6%.
